Data taken from the supplement of paper PMC10883282.

Columns and labels:
Experiment in all cases: relative viability vs DMSO control (72 h) (fraction); higher = more viable cells
A204 = tested on: A204
How it was run: (§1)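 Serially diluted compound, 2.5 µl from source plates spanning 10 mM to 0.0002 mM, was added 24 h after sarcoma cell lines were seeded in 384-well plates at densities targeting 80–90% confluence. Plates then sat 72 h at 37 °C, 5% CO2, with 0.1% DMSO vehicle and a 5 µM positive control. Relative viability came from ATPLite as percent growth, averaged over up to triplicate wells, and was rescaled with 1 as full and 0 as none.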

G401 = tested on: G401
How it was run: as §1

HS729 = tested on: HS729
How it was run: as §1

KHOS-NP = tested on: KHOS-NP
How it was run: as §1

MES-SA = tested on: MES-SA
How it was run: as §1

RD = tested on: RD
How it was run: as §1

SK-ES-1 = tested on: SK-ES-1
How it was run: as §1

SK-LMS-1 = tested on: SK-LMS-1
How it was run: as §1

SW684 = tested on: SW684
How it was run: as §1

SW872 = tested on: SW872
How it was run: as §1

SYO-1 = tested on: SYO-1
How it was run: as §1

VA-ES-BJ = tested on: VA-ES-BJ
How it was run: as §1

CC(=O)c1c(C)c2cnc(Nc3ccc(N4CCNCC4)cn3)nc2n(C2CCCC2)c1=O [Palbociclib]
Conditions | relative viability
A204, 0.00017 µM | 1.05
A204, 0.00051 µM | 1.07
A204, 0.00152 µM | 1.07
A204, 0.00457 µM | 1.08
A204, 0.01372 µM | 1.03
A204, 0.04115 µM | 0.987
A204, 0.1235 µM | 0.808
A204, 0.3704 µM | 0.777
A204, 1.111 µM | 0.649
A204, 3.333 µM | 0.556
A204, 10 µM | 0.39
G401, 0.00017 µM | 1.04
G401, 0.00051 µM | 1.03
G401, 0.00152 µM | 1.016
G401, 0.00457 µM | 0.989
G401, 0.01372 µM | 0.962
G401, 0.04115 µM | 0.938
G401, 0.1235 µM | 0.882
G401, 0.3704 µM | 0.856
G401, 1.111 µM | 0.833
G401, 3.333 µM | 0.742
G401, 10 µM | 0.293
HS729, 0.00017 µM | 1.05
HS729, 0.00051 µM | 1.02
HS729, 0.00152 µM | 1.06
HS729, 0.00457 µM | 1.01
HS729, 0.01372 µM | 1.05
HS729, 0.04115 µM | 0.965
HS729, 0.1235 µM | 0.987
HS729, 0.3704 µM | 0.984
HS729, 1.111 µM | 0.844
HS729, 3.333 µM | 0.849
HS729, 10 µM | 0.933
KHOS-NP, 0.00017 µM | 1.12
KHOS-NP, 0.00051 µM | 1.11
KHOS-NP, 0.00152 µM | 1.124
KHOS-NP, 0.00457 µM | 1.1
KHOS-NP, 0.01372 µM | 1.13
KHOS-NP, 0.04115 µM | 1.12
KHOS-NP, 0.1235 µM | 1.11
KHOS-NP, 0.3704 µM | 1.1
KHOS-NP, 1.111 µM | 1.07
KHOS-NP, 3.333 µM | 0.902
KHOS-NP, 10 µM | 0.742
MES-SA, 0.00017 µM | 0.965
MES-SA, 0.00051 µM | 0.977
MES-SA, 0.00152 µM | 0.975
MES-SA, 0.00457 µM | 0.936
MES-SA, 0.01372 µM | 0.9398
MES-SA, 0.04115 µM | 0.852
MES-SA, 0.1235 µM | 0.782
MES-SA, 0.3704 µM | 0.678
MES-SA, 1.111 µM | 0.641
MES-SA, 3.333 µM | 0.521
MES-SA, 10 µM | 0.366
RD, 0.00017 µM | 1.03
RD, 0.00051 µM | 1.08
RD, 0.00152 µM | 1.11
RD, 0.00457 µM | 1.09
RD, 0.01372 µM | 1.08
RD, 0.04115 µM | 1.09
RD, 0.1235 µM | 1.05
RD, 0.3704 µM | 1.01
RD, 1.111 µM | 0.968
RD, 3.333 µM | 0.905
RD, 10 µM | 0.276
SK-ES-1, 0.00017 µM | 1
SK-ES-1, 0.00051 µM | 1.07
SK-ES-1, 0.00152 µM | 1.03
SK-ES-1, 0.00457 µM | 1.02
SK-ES-1, 0.01372 µM | 0.9868
SK-ES-1, 0.04115 µM | 0.865
SK-ES-1, 0.1235 µM | 0.674
SK-ES-1, 0.3704 µM | 0.512
SK-ES-1, 1.111 µM | 0.467
SK-ES-1, 3.333 µM | 0.407
SK-ES-1, 10 µM | 0.241
SK-LMS-1, 0.00017 µM | 1.05
SK-LMS-1, 0.00051 µM | 1.04
SK-LMS-1, 0.00152 µM | 1.08
SK-LMS-1, 0.00457 µM | 1.05
SK-LMS-1, 0.01372 µM | 1.06
SK-LMS-1, 0.04115 µM | 0.97
SK-LMS-1, 0.1235 µM | 0.998
SK-LMS-1, 0.3704 µM | 0.961
SK-LMS-1, 1.111 µM | 1
SK-LMS-1, 3.333 µM | 1.06
SK-LMS-1, 10 µM | 0.798
SW684, 0.00017 µM | 1.19
SW684, 0.00051 µM | 1.2
SW684, 0.00152 µM | 1.24
SW684, 0.00457 µM | 1.241
SW684, 0.01372 µM | 1.28
SW684, 0.04115 µM | 1.21
SW684, 0.1235 µM | 1.18
SW684, 0.3704 µM | 1.11
SW684, 1.111 µM | 1.05
SW684, 3.333 µM | 0.933
SW684, 10 µM | 0.7226
SW872, 0.00017 µM | 1.11
SW872, 0.00051 µM | 1.1
SW872, 0.00152 µM | 1.07
SW872, 0.00457 µM | 1.09
SW872, 0.01372 µM | 1.07
SW872, 0.04115 µM | 1.03
SW872, 0.1235 µM | 0.968
SW872, 0.3704 µM | 0.884
SW872, 1.111 µM | 0.83
SW872, 3.333 µM | 0.78
SW872, 10 µM | 0.726
SYO-1, 0.00017 µM | 1.01
SYO-1, 0.00051 µM | 1
SYO-1, 0.00152 µM | 1.01
SYO-1, 0.00457 µM | 0.9555
SYO-1, 0.01372 µM | 0.903
SYO-1, 0.04115 µM | 0.8
SYO-1, 0.1235 µM | 0.702
SYO-1, 0.3704 µM | 0.649
SYO-1, 1.111 µM | 0.621
SYO-1, 3.333 µM | 0.523
SYO-1, 10 µM | -0.000667
VA-ES-BJ, 0.00017 µM | 1.1
VA-ES-BJ, 0.00051 µM | 1.1
VA-ES-BJ, 0.00152 µM | 1.081
VA-ES-BJ, 0.00457 µM | 1.08
VA-ES-BJ, 0.01372 µM | 0.99
VA-ES-BJ, 0.04115 µM | 0.9367
VA-ES-BJ, 0.1235 µM | 0.807
VA-ES-BJ, 0.3704 µM | 0.666
VA-ES-BJ, 1.111 µM | 0.584
VA-ES-BJ, 3.333 µM | 0.547
VA-ES-BJ, 10 µM | 0.499
